Some test systems named below: KM12 colon; HOP-62 NSCLC; IGROV1 ovarian; SN12C renal; HCT-116 colon; OVCAR-5 ovarian; NCI-H522 lung; HS 578T breast; PC-3 prostate; SF-539 CNS.
Test in all cases: NCI-60 cell line screen, 48 h

Each structure is given as a SMILES string. Where “and” joins values, the source holds several entries; their conditions need not be identical. Equal entries are not always repeated.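 How tested: cells in 96-well plates exposed to compound for 48 hours at five concentrations. GI50: concentration for 50% inhibition of growth. At the TGI there is no net growth.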 Bounds are passed on as bounds.

In the case of `CCCCOC(=O)c1c(C)[nH]c(/C=C2\N=C(c3ccc[nH]3)C=C2OC)c1C`, the GI50 with KM12 colon is 110 nM; with HOP-62 NSCLC, 416 nM; in the assay with IGROV1 ovarian, 232 nM; in the assay on SN12C renal it was 226 nM; in the assay with HCT-116 colon it was 41.2 nM; with OVCAR-5 ovarian it was 337 nM. Further, the GI50 was 174 nM with NCI-H522 lung, 147 nM with HS 578T breast, 136 nM in the assay with PC-3 prostate and 245 nM in the assay with SF-539 CNS. For the same compound, the TGI in the assay on KM12 colon was 1.86 µM; with HOP-62 NSCLC, 8.04 µM; in the assay on IGROV1 ovarian, 2.39 µM; in the assay on SN12C renal, 2.54 µM; in the assay with HCT-116 colon, 1360 nM; in the assay on OVCAR-5 ovarian, 2.47 µM. Also, the TGI with NCI-H522 lung was 1.68 µM; in the assay with HS 578T breast, 1.19 µM; with PC-3 prostate, above 24.9 µM; in the assay with SF-539 CNS, 2 µM.
As for `CC(=O)N[C@@H](Cc1ccc(OP(=O)(O)O)cc1)C(=O)N[C@H]1CCC(=O)N2CCC[C@@H](C(=O)NC3CCc4ccccc43)N2C1=O` (some centres undefined), the GI50 with KM12 colon, in the assay on HOP-62 NSCLC, with IGROV1 ovarian, in the assay on SN12C renal, in the assay on HCT-116 colon and in the assay on OVCAR-5 ovarian was above 25000 nM in each case. Further, the GI50 in the assay on NCI-H522 lung, in the assay with HS 578T breast, in the assay with PC-3 prostate and with SF-539 CNS was above 25000 nM each time. The TGI in the assay with KM12 colon was above 25 µM; with HOP-62 NSCLC it was above 25 µM; in the assay with IGROV1 ovarian it was above 25 µM; in the assay with SN12C renal, above 25 µM; in the assay with HCT-116 colon it was above 25000 nM; in the assay with OVCAR-5 ovarian it was above 25 µM. Besides, the TGI in the assay on NCI-H522 lung, in the assay with HS 578T breast, in the assay on PC-3 prostate and in the assay with SF-539 CNS was above 25 µM each time.
Turning to `Cc1cnc(-c2ccc(-c3ccc(NC(=O)Nc4c(F)cc(F)cc4F)cc3F)c3c2C(=O)NC3)[nH]1`, the GI50 with KM12 colon was below 10 nM; with IGROV1 ovarian, 824 nM and 1310 nM; in the assay on SN12C renal, 1290 nM and 432 nM; with HCT-116 colon, 307 nM and 1030 nM; in the assay with OVCAR-5 ovarian, 1610 nM and 1560 nM; in the assay on NCI-H522 lung it was 1120 nM and 1200 nM. Further, the GI50 was 351 nM and 1070 nM in the assay on HS 578T breast; 1410 nM and 2570 nM in the assay with PC-3 prostate; 709 nM in the assay on SF-539 CNS. In addition, the TGI was 2.58 µM and 6.87 µM in the assay on KM12 colon; 3.07 µM and 11 µM with HOP-62 NSCLC; 6.63 µM and 18.8 µM with IGROV1 ovarian; 4.57 µM and 3.41 µM in the assay with SN12C renal; 2800 nM and 2710 nM in the assay on HCT-116 colon; 13.2 µM and 12.6 µM in the assay with OVCAR-5 ovarian. The TGI with NCI-H522 lung was 3.69 µM and 3.95 µM; in the assay with HS 578T breast, 5.19 µM and 13.5 µM; in the assay on PC-3 prostate, 3.82 µM and 30.1 µM; in the assay on SF-539 CNS, 18.9 µM.
`COCCn1c2c([n+](Cc3cnccn3)c1C)C(=O)c1ccccc1C2=O`: the GI50 in the assay on KM12 colon is 37.6 nM; in the assay with HOP-62 NSCLC, 22.1 nM; in the assay on IGROV1 ovarian it was below 10 nM; in the assay with SN12C renal, below 10 nM; with HCT-116 colon, below 10 nM; in the assay on OVCAR-5 ovarian, 30.8 nM. Also, the GI50 in the assay on NCI-H522 lung is below 10 nM; with HS 578T breast, 302 nM; in the assay with PC-3 prostate it was below 10 nM; with SF-539 CNS, below 10 nM. For the same compound, the TGI is 0.557 µM with KM12 colon; 0.119 µM with HOP-62 NSCLC; below 0.0169 µM in the assay on IGROV1 ovarian; 0.0316 µM in the assay on SN12C renal; 10.6 nM in the assay on HCT-116 colon; 0.129 µM in the assay on OVCAR-5 ovarian. For the same compound, the TGI with NCI-H522 lung was below 0.01 µM; in the assay on HS 578T breast, 10.7 µM; in the assay on PC-3 prostate, 0.0359 µM; with SF-539 CNS it was 0.0337 µM.
`O=C(/C=C/C=C/c1ccc2c(c1)OCO2)N/N=C\c1ccc(O)cc1O`: the GI50 in the assay with KM12 colon is 2920 nM; in the assay on HOP-62 NSCLC it was 1610 nM; in the assay on IGROV1 ovarian, 2230 nM; in the assay with SN12C renal, 2980 nM; with HCT-116 colon, 2020 nM; in the assay on OVCAR-5 ovarian, 3870 nM. Besides, the GI50 was 2900 nM in the assay with NCI-H522 lung, 2290 nM with HS 578T breast, 2860 nM with PC-3 prostate and 2700 nM with SF-539 CNS. Besides, the TGI in the assay with KM12 colon worked out at 20.6 µM; in the assay with HOP-62 NSCLC, 15.7 µM; in the assay on IGROV1 ovarian it was 14.3 µM; in the assay on SN12C renal, 16.2 µM; with HCT-116 colon, 14500 nM; in the assay with OVCAR-5 ovarian, 27.4 µM. Also, the TGI with NCI-H522 lung came to 15.3 µM; in the assay on HS 578T breast it was 8.15 µM; in the assay on PC-3 prostate it was 23.1 µM; with SF-539 CNS, 11.6 µM.
For `O=C1OCC2=C1C(c1cccc(Cl)c1)c1cc3c(cc1N2CCO)CCC3` (centres undefined), the GI50 in the assay with KM12 colon is 40.2 nM; with HOP-62 NSCLC, 47.8 nM; with IGROV1 ovarian, 121 nM; in the assay on SN12C renal, 75.9 nM; in the assay on HCT-116 colon, 44.7 nM; in the assay with OVCAR-5 ovarian, 143 nM. The GI50 with NCI-H522 lung was 20.3 nM; with HS 578T breast it was 45.3 nM; with PC-3 prostate, 39.8 nM; in the assay with SF-539 CNS, 36.1 nM. Further, the TGI in the assay with KM12 colon came to 4.05 µM; in the assay on HOP-62 NSCLC, 14.4 µM; in the assay with IGROV1 ovarian, 15.6 µM; with SN12C renal it was 11.9 µM; in the assay with HCT-116 colon, 2920 nM; in the assay on OVCAR-5 ovarian, 18.2 µM. For the same compound, the TGI came out at 0.0603 µM in the assay with NCI-H522 lung, 22.2 µM in the assay with HS 578T breast, 11.8 µM in the assay on PC-3 prostate and 7.53 µM in the assay with SF-539 CNS.
On to `O=C(CN1CCN(C(=O)c2ccco2)CC1)Nc1ccc(Cl)cc1C(=O)c1ccccc1Cl`, for which the GI50 is 7330 nM in the assay on KM12 colon; 16900 nM in the assay with HOP-62 NSCLC; 4230 nM with IGROV1 ovarian; 14600 nM in the assay with SN12C renal; 13000 nM in the assay with HCT-116 colon; 24000 nM in the assay on OVCAR-5 ovarian. Further, the GI50 with NCI-H522 lung was 4160 nM; in the assay with HS 578T breast it was 10800 nM; in the assay with PC-3 prostate it was 2750 nM; with SF-539 CNS, 13600 nM. Moreover, the TGI with KM12 colon amounted to 20.9 µM; with HOP-62 NSCLC it was 35.6 µM; in the assay with IGROV1 ovarian, 17.6 µM; with SN12C renal, 44.7 µM; in the assay with HCT-116 colon it was 26900 nM; with OVCAR-5 ovarian, 63 µM. Besides, the TGI is 27.4 µM with NCI-H522 lung, 33 µM in the assay with HS 578T breast, 16.3 µM with PC-3 prostate and 26.9 µM with SF-539 CNS.
On to `COc1cc(C)[nH]c(=O)c1CNC(=O)c1c(C)n([C@H](C)C2CCN(CC(F)(F)F)CC2)c2ccccc12`, for which the GI50 in the assay on KM12 colon is 41600 nM; in the assay with HOP-62 NSCLC it was above 100000 nM; in the assay on IGROV1 ovarian, 49200 nM; in the assay on SN12C renal, 43000 nM; in the assay on HCT-116 colon, 59300 nM; with OVCAR-5 ovarian, above 100000 nM. Further, the GI50 with NCI-H522 lung is 80300 nM; in the assay on HS 578T breast, 95300 nM; with PC-3 prostate it was 47400 nM; in the assay with SF-539 CNS it was 67400 nM. The TGI was above 100 µM in the assay with KM12 colon; above 100 µM in the assay on HOP-62 NSCLC; above 100 µM in the assay on IGROV1 ovarian; above 100 µM in the assay with SN12C renal; above 100000 nM in the assay on HCT-116 colon; above 100 µM with OVCAR-5 ovarian. Further, the TGI with NCI-H522 lung, in the assay on HS 578T breast, in the assay with PC-3 prostate and in the assay with SF-539 CNS was above 100 µM throughout.
For `COc1cc2c(cc1-c1coc3cc(O)ccc3c1=O)OCO2`, the TGI is above 100 µM with KM12 colon; 33.3 µM with HOP-62 NSCLC; 53.7 µM with IGROV1 ovarian; 67.2 µM in the assay with SN12C renal; 37100 nM in the assay on HCT-116 colon; above 100 µM in the assay on OVCAR-5 ovarian. Besides, the TGI was 36.2 µM in the assay with NCI-H522 lung, 58.2 µM in the assay with HS 578T breast, above 100 µM with PC-3 prostate and 48.6 µM in the assay on SF-539 CNS.
For `COc1cc2c(cc1[N+](=O)[O-])C(=O)C(Br)(Br)CCC2`, the TGI with KM12 colon stood at 15.2 µM; in the assay on HOP-62 NSCLC, 14.4 µM; with IGROV1 ovarian, 2.93 µM; in the assay with SN12C renal it was 5.16 µM; in the assay on HCT-116 colon, 1870 nM; in the assay with OVCAR-5 ovarian, 4.42 µM. Besides, the TGI with NCI-H522 lung stood at 2.37 µM; in the assay on HS 578T breast, 23.2 µM; in the assay with PC-3 prostate, 17 µM; with SF-539 CNS, 3.87 µM.
`COc1cc(C2CC(c3cccc(Nc4ccnc5cc(Cl)ccc45)c3)=NN2c2ccccc2)cc(OC)c1OC` (centres undefined): the GI50 was 2000 nM in the assay on KM12 colon; 3810 nM with HOP-62 NSCLC; 29200 nM in the assay on IGROV1 ovarian; above 100000 nM with SN12C renal; 6510 nM with HCT-116 colon; above 100000 nM with OVCAR-5 ovarian. The GI50 was 3600 nM with NCI-H522 lung, 9220 nM in the assay with HS 578T breast, 1710 nM in the assay on PC-3 prostate and 3080 nM in the assay with SF-539 CNS. Further, the TGI was above 100 µM in the assay on KM12 colon; above 100 µM with HOP-62 NSCLC; above 100 µM in the assay on IGROV1 ovarian; above 100 µM with SN12C renal; above 100000 nM in the assay on HCT-116 colon; above 100 µM with OVCAR-5 ovarian. In addition, the TGI with NCI-H522 lung was above 100 µM; with HS 578T breast it was above 100 µM; in the assay on PC-3 prostate it was above 100 µM; in the assay on SF-539 CNS it was 18.1 µM.
In the case of `Cc1cc(C)c2c(c1)N(C)c1ncnc(-n3cnc4cc(C)ccc43)c1CC2C` (centres undefined), the GI50 with KM12 colon was 3670 nM; in the assay with HOP-62 NSCLC, 4710 nM; with IGROV1 ovarian, 5460 nM; in the assay with SN12C renal, 4370 nM; with HCT-116 colon, 3080 nM; in the assay with OVCAR-5 ovarian it was 5520 nM. Moreover, the GI50 in the assay with NCI-H522 lung was 2070 nM; with HS 578T breast, 3000 nM; with PC-3 prostate, 2250 nM; in the assay with SF-539 CNS it was 2740 nM. For the same compound, the TGI in the assay with KM12 colon was 26 µM; in the assay with HOP-62 NSCLC, 30 µM; with IGROV1 ovarian, above 100 µM; in the assay with SN12C renal, 19.7 µM; in the assay on HCT-116 colon it was 14600 nM; in the assay with OVCAR-5 ovarian, 24.4 µM. In addition, the TGI worked out at 6.53 µM in the assay on NCI-H522 lung, 31 µM in the assay with HS 578T breast, 14.8 µM in the assay with PC-3 prostate and 9.16 µM in the assay on SF-539 CNS.

The record behind these values is PubChem BioAssay (NCI).
